Laboratory results reported in ChEMBL document CHEMBL3991601, “The target landscape of clinical kinase drugs” (Science, 2017).
Counter-ions that a name gives are not always drawn. Calls of active or inactive are those of the source. Rule as the data show it, for most assays here: actives have a measured Kd and inactives only a lower limit.

Key:
[1] = target: Ribosomal protein S6 kinase alpha-6 (Homo sapiens, UniProt Q9UK32)
[2] = target: T1, Peroxisomal acyl-coenzyme A oxidase 3 (Homo sapiens, UniProt O15254)
T1 sequence (O15254 whole entry): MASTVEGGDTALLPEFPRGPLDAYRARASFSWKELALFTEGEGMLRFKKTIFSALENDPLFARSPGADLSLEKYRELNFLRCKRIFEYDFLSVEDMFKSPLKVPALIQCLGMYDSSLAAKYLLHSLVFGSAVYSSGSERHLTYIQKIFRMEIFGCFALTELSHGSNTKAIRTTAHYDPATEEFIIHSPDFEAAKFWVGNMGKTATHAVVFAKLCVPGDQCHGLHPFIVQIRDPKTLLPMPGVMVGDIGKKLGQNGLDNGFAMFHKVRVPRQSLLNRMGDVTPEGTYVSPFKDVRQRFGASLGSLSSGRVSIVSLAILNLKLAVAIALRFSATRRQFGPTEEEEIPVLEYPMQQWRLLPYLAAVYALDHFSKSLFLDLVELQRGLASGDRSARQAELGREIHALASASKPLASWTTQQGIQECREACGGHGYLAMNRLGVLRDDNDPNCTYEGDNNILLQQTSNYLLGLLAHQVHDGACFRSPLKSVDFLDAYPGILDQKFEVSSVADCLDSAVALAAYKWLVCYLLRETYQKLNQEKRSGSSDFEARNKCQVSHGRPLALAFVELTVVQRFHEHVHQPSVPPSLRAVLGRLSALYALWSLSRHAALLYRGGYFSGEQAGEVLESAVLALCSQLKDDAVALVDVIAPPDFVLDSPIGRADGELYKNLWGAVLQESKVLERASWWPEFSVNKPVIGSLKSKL

[3] = target: Rho-associated protein kinase 2 (Homo sapiens, UniProt O75116)
[4] = target: Fibroblast growth factor receptor 1 (Homo sapiens, UniProt P11362)
[5] = target: Mitogen-activated protein kinase 10 (Homo sapiens, UniProt P53779)
[6] = target: T2, Mitogen-activated protein kinase kinase kinase 6 (Homo sapiens, UniProt O95382)
T2 sequence (O95382 whole entry): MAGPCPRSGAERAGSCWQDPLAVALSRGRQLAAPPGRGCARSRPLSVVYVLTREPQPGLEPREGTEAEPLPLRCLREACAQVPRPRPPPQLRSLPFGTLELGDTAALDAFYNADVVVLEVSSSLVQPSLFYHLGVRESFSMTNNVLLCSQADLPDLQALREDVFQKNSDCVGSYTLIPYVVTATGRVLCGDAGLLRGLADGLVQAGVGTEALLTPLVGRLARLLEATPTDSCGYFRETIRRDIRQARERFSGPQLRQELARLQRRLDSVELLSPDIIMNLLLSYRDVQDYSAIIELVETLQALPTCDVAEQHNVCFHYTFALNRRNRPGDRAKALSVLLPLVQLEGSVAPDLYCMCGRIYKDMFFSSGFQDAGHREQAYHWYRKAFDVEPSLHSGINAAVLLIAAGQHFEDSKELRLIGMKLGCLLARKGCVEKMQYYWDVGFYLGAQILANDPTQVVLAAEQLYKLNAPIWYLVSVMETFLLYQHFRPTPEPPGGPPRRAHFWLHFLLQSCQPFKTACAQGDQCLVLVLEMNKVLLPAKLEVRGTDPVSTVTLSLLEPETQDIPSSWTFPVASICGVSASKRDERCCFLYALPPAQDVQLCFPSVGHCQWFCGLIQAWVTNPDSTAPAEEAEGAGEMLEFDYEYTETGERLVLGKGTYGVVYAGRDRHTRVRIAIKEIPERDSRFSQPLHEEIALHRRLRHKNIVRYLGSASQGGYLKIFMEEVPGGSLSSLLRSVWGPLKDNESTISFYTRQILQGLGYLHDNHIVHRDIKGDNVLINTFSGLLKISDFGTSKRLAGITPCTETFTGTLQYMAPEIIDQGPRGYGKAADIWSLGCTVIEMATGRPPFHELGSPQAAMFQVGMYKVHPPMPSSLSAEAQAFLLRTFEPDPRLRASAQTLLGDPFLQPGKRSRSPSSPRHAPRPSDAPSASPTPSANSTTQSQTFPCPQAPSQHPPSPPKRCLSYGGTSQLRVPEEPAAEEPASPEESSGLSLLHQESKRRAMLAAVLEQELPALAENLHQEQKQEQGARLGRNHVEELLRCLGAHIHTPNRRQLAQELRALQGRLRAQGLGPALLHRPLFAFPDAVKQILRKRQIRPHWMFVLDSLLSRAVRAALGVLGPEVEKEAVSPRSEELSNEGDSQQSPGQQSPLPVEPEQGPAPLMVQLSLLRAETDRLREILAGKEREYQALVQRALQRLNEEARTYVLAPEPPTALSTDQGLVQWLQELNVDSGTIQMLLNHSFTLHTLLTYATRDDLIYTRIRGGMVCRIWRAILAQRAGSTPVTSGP

[7] = target: Phosphatidylethanolamine-binding protein 1 (Homo sapiens, UniProt P30086)
Also: in the data inactive means no Kd found up to 30 µM.

Chain of Ribosomal protein S6 kinase alpha-6 (Q9UK32 whole entry): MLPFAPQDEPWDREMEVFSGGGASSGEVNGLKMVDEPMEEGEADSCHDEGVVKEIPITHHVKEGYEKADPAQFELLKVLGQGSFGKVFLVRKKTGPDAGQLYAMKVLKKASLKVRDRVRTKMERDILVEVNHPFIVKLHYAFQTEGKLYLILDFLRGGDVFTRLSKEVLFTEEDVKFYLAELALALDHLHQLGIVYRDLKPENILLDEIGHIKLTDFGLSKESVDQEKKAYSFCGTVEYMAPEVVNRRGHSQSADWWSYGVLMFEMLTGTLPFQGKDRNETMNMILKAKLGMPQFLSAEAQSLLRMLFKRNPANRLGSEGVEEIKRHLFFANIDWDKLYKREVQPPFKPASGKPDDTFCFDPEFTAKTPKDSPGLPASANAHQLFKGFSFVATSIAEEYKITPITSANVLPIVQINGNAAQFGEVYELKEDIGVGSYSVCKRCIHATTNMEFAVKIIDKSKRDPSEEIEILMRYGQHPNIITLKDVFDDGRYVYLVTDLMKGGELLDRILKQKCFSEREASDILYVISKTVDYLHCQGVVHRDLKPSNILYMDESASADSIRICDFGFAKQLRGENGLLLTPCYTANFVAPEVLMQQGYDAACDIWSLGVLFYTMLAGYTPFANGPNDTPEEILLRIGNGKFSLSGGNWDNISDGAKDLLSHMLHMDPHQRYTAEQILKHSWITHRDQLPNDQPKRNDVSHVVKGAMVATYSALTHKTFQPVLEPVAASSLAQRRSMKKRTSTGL
Chain of Rho-associated protein kinase 2 (O75116 whole entry): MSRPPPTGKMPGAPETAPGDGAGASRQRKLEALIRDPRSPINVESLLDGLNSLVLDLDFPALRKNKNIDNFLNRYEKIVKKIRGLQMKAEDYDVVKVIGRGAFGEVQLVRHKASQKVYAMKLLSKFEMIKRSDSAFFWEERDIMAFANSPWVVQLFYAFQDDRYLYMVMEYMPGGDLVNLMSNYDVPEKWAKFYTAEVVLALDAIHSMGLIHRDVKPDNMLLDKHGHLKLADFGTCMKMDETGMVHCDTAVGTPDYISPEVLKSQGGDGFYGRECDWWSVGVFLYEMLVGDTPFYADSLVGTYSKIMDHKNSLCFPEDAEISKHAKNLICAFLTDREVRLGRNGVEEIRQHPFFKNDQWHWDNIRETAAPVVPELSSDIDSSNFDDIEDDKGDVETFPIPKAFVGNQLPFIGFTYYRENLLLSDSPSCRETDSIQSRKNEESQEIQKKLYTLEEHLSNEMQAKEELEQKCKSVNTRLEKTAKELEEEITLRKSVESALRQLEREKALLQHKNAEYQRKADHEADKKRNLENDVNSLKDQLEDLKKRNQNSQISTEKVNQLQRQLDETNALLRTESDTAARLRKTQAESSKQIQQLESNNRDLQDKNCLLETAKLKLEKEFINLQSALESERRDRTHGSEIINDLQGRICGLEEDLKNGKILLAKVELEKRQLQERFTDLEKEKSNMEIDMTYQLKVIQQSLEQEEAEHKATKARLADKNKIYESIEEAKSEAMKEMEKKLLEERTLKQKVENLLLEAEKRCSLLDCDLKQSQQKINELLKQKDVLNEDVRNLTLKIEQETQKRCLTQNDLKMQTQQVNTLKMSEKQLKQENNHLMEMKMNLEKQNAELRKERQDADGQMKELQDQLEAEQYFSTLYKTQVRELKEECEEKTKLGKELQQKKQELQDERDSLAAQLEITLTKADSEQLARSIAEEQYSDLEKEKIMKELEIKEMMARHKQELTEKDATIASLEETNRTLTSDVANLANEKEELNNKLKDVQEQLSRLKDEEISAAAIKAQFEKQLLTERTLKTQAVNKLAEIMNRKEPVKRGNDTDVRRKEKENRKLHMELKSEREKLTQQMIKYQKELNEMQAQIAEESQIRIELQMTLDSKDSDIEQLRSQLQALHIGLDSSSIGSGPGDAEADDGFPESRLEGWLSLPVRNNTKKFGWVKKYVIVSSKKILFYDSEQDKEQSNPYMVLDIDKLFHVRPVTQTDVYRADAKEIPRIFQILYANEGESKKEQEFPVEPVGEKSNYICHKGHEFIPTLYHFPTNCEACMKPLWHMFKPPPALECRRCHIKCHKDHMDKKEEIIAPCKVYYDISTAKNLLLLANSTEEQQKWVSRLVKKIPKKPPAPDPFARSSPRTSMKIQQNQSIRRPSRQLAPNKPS
Chain of Phosphatidylethanolamine-binding protein 1 (P30086 whole entry): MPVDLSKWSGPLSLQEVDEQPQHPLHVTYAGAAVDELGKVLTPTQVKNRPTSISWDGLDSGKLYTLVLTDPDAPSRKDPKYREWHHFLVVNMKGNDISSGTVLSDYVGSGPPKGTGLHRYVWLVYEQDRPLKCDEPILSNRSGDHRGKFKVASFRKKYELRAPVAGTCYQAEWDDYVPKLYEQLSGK
Chain of Mitogen-activated protein kinase 10 (P53779 whole entry): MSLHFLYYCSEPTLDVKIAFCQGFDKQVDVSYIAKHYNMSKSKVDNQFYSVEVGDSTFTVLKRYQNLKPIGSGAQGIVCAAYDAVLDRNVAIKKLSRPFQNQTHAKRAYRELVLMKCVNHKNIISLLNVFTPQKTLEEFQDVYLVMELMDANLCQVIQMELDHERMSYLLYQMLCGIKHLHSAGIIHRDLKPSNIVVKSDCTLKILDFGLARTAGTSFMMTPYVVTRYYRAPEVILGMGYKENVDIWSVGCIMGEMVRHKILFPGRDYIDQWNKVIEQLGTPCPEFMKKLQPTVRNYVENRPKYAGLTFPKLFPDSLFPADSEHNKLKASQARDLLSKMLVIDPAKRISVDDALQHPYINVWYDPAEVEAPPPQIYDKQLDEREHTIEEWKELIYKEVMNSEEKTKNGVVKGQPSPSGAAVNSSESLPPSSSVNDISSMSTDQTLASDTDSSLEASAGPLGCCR
Chain of Fibroblast growth factor receptor 1 (P11362 whole entry): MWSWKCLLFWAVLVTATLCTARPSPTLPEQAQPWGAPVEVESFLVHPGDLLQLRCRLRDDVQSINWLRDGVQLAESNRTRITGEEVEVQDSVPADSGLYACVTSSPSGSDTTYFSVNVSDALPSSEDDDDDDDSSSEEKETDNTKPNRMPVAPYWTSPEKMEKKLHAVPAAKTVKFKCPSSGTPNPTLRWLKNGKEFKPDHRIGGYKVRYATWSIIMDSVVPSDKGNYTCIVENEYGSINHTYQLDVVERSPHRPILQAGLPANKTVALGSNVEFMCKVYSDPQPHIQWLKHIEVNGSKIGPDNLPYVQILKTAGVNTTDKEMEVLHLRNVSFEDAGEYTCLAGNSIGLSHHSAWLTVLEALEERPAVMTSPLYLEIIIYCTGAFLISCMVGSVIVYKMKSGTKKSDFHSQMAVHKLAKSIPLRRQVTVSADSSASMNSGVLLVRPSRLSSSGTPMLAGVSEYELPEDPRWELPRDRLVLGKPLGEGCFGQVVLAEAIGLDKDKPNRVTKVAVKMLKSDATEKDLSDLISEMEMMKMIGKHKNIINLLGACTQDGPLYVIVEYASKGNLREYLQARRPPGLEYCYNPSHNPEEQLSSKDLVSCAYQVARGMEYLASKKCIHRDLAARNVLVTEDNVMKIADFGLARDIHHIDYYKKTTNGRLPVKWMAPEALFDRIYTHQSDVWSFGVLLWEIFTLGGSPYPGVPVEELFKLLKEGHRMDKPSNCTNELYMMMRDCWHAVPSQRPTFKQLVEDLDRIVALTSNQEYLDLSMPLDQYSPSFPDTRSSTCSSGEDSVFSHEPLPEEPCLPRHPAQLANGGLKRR

| Structure (SMILES) | Kd [1] | Kd [2] | Kd [3] | Kd [4] | Kd [5] | Kd [6] | Kd [7] |
| --- | --- | --- | --- | --- | --- | --- | --- |
| C[C@H]1CNCCCN1S(=O)(=O)c1cccc2cncc(F)c12 | > 30 µM (inactive) | > 30 µM (inactive) | 0.083 µM (active) | > 30 µM (inactive) | > 30 µM (inactive) | > 30 µM (inactive) | – |
| CC(=O)c1cnc2ccc(-c3cc(Cl)c(O)c(Cl)c3)nc2c1N[C@H]1CC[C@H](CN(C)C)CC1 | 0.057 µM (active) | > 30 µM (inactive) | > 30 µM (inactive) | > 30 µM (inactive) | 0.112 µM (active) | 1.91 µM (active) | > 30 µM (inactive) |
| CCNC(=O)C#Cc1ccc2c(c1)NC(=O)/C2=C(\Nc1ccc(CN(C)C)cc1)c1ccccc1 | > 30 µM (inactive) | > 30 µM (inactive) | > 30 µM (inactive) | 2.51 µM (active) | > 30 µM (inactive) | > 30 µM (inactive) | – |
| Cc1nc2cc(-c3nn(C(C)C)c4ncnc(N)c34)ccc2o1 | > 30 µM (inactive) | > 30 µM (inactive) | > 30 µM (inactive) | – | > 30 µM (inactive) | > 30 µM (inactive) | > 30 µM (inactive) |
| COCc1c(-c2ccc(NC(=O)Nc3cc(C(F)(F)F)ccc3F)c(F)c2)c2c(N)ncnn2c1CN1CCOCC1 | 2.69 µM (active) | > 30 µM (inactive) | > 30 µM (inactive) | 0.04 µM (active) | > 30 µM (inactive) | > 30 µM (inactive) | > 30 µM (inactive) |
| Nc1ncnc2c1c(-c1cccc(OCc3ccccc3)c1)cn2[C@H]1C[C@@H](CN2CCC2)C1 [AEW-541] | > 30 µM (inactive) | > 30 µM (inactive) | 18.3 µM (active) | > 30 µM (inactive) | > 30 µM (inactive) | > 30 µM (inactive) | – |
| CNC(=O)c1ccccc1Sc1ccc2c(/C=C/c3ccccn3)n[nH]c2c1 [AXITINIB] | – | > 30 µM (inactive) | – | – | – | – | > 30 µM (inactive) |
| Cc1cc(C(=O)NOCCO)c(Nc2ccc(I)cc2F)n(C)c1=O [AZD-8330] | > 30 µM (inactive) | > 30 µM (inactive) | > 30 µM (inactive) | > 30 µM (inactive) | > 30 µM (inactive) | > 30 µM (inactive) | – |
| Cn1cc(C2=C(c3cn(C4CCN(Cc5ccccn5)CC4)c4ccccc34)C(=O)NC2=O)c2ccccc21 [ENZASTAURIN] | – | > 30 µM (inactive) | – | – | – | – | > 30 µM (inactive) |
| Cc1nc2cc(-n3ncc(C(=O)c4cc5ccccc5[nH]4)c3N)ccc2[nH]1 [FGFR INHIBITOR DEBIO 1347] | > 30 µM (inactive) | > 30 µM (inactive) | > 30 µM (inactive) | – | > 30 µM (inactive) | > 30 µM (inactive) | > 30 µM (inactive) |
| COc1ccc(S(=O)(=O)N(C(C)=O)c2ccccc2/C=C/c2cc[n+]([O-])cc2)cc1 [HMN-214] | > 30 µM (inactive) | > 30 µM (inactive) | > 30 µM (inactive) | > 30 µM (inactive) | > 30 µM (inactive) | > 30 µM (inactive) | – |
| Cc1[nH]c(/C=C2\C(=O)Nc3ccccc32)c(C)c1CCC(=O)O [ORANTINIB] | > 30 µM (inactive) | > 30 µM (inactive) | – | – | – | > 30 µM (inactive) | – |
| NC(=O)c1c(OCc2c(F)cc(Br)cc2F)nsc1NC(=O)NCCCCN1CCCC1 [OSI-632] | > 30 µM (inactive) | > 30 µM (inactive) | – | – | > 30 µM (inactive) | > 30 µM (inactive) | > 30 µM (inactive) |
| CNC(=O)c1cc(Oc2ccc(NC(=O)Nc3cc(C(C)(C)C)nn3-c3ccc4ncccc4c3)c(F)c2)ccn1 [REBASTINIB] | > 30 µM (inactive) | 16.1 µM | > 30 µM (inactive) | – | 0.072 µM | > 30 µM (inactive) | – |
| O=C(NOCCO)c1cc(CN2OCCCC2=O)c(F)c(F)c1Nc1ccc(I)cc1F [RO-4987655] | – | > 30 µM (inactive) | – | – | – | – | > 30 µM (inactive) |
| N#CC[C@H](C1CCCC1)n1cc(-c2ncnc3[nH]ccc23)cn1 [RUXOLITINIB] | – | > 30 µM (inactive) | – | – | – | – | > 30 µM (inactive) |
| CN1CCN(CCOc2cc(OC3CCOCC3)c3c(Nc4c(Cl)ccc5c4OCO5)ncnc3c2)CC1 [SARACATINIB] | > 30 µM (inactive) | > 30 µM (inactive) | > 30 µM (inactive) | > 30 µM (inactive) | > 30 µM (inactive) | > 30 µM (inactive) | – |
| C[C@@H](N)c1ccc(C(=O)Nc2ccnc3[nH]ccc23)cc1 [Y-39983] | > 30 µM (inactive) | > 30 µM (inactive) | – | > 30 µM (inactive) | > 30 µM (inactive) | > 30 µM (inactive) | > 30 µM (inactive) |

The next lines start with the values.

| Kd [1] | Kd [2] | Kd [3] | Kd [4] | Kd [5] | Kd [6] | Kd [7] | Structure (SMILES) |
| --- | --- | --- | --- | --- | --- | --- | --- |
| > 30 µM (inactive) | > 30 µM (inactive) | > 30 µM (inactive) | > 30 µM (inactive) | > 30 µM (inactive) | > 30 µM (inactive) | > 30 µM (inactive) | C=CC(=O)N1CCC[C@H](n2c(=O)n(-c3ccc(Oc4ccccc4)cc3)c3c(N)ncnc32)C1 |
| > 30 µM (inactive) | > 30 µM (inactive) | – | – | > 30 µM (inactive) | > 30 µM (inactive) | > 30 µM (inactive) | COc1cc(Nc2ncc3c(n2)-c2ccc(Cl)cc2C(c2c(F)cccc2OC)=NC3)ccc1C(=O)O [ALISERTIB] |
| – | > 30 µM (inactive) | > 30 µM (inactive) | – | 0.358 µM (active) | > 30 µM (inactive) | > 30 µM (inactive) | O=C(Nc1c[nH]nc1-c1nc2cc(CN3CCOCC3)ccc2[nH]1)NC1CC1 [AT-9283] |
| > 30 µM (inactive) | > 30 µM (inactive) | > 30 µM (inactive) | > 30 µM (inactive) | > 30 µM (inactive) | > 30 µM (inactive) | – | C=CC(=O)Nc1cc2c(Nc3ccc(F)c(Cl)c3)ncnc2cc1C#CC(C)(C)N1CCN(C)CC1 [AV-412 FREE BASE] |
| 0.455 µM (active) | > 30 µM (inactive) | > 30 µM (inactive) | > 30 µM (inactive) | – | 0.473 µM (active) | – | CCS(=O)(=O)N1CCN(c2ccc(Nc3ncc(C(N)=O)c(NC4CC4)n3)cc2)CC1 [Cerdulatinib Hydrochloride] |
| – | > 30 µM (inactive) | – | – | – | – | > 30 µM (inactive) | C[C@@H](Oc1cc(-n2cnc3ccc(CN4CCN(C)CC4)cc32)sc1C(N)=O)c1ccccc1C(F)(F)F [GSK-461364] |
| > 30 µM (inactive) | > 30 µM (inactive) | 2.4 µM (active) | – | > 30 µM (inactive) | > 30 µM (inactive) | – | CCn1cc(-c2ccnc3[nH]c(-c4cccc(CN(C)C)c4)cc23)c(-c2ccc(NC(=O)N(C)C)cc2)n1 [GSK-1070916] |
| > 30 µM (inactive) | > 30 µM (inactive) | > 30 µM (inactive) | 1.42 µM (active) | – | > 30 µM (inactive) | – | CNC(=O)c1nn(C)c2c1C(C)(C)Cc1cnc(Nc3ccc(N4CCN(C)CC4)cc3)nc1-2 [MILCICLIB] |
| – | > 30 µM (inactive) | – | – | > 30 µM (inactive) | 1.06 µM (active) | – | CC(=O)NCC(=O)N1[C@@H]2CC[C@H]1c1ccc(Nc3ncc(C(F)(F)F)c(NC4CCC4)n3)cc12 [PF-03814735] |
